Values of other authors in US6376531B1, “Method of treatment using deuterium compounds” (priority 1998, dated 2002).

How the values were obtained:
mice = conditions: Hayes and Palmer 1976, 1972
mouse = conditions: Hayes and Palmer, Experientia 1976

solubility in aqueous solutions | solubility in water | Compound | other results
soluble | – | N[C@@H](Cc1c[nH]c2ccc(O)cc12)C(=O)O [5-hydroxytryptophan] | –
– | – | [2H]O[2H] [Deuterium oxide] | effect on the period and entrainment of the light-dark (LD) cycle (mice): chronomutagenic effect; spontaneous locomotor activity (mouse): suppressed
soluble | soluble | COc1ccc2[nH]cc(CCNC(C)=O)c2c1 [Melatonin] | –
– | soluble | CSCC[C@H](N)C(=O)O [Methionine] | –
freely soluble | – | NC[C@H](O)c1ccc(O)c(O)c1 [Norepinephrine] | –
soluble | – | NCCc1c[nH]c2ccc(O)cc12 [Serotonin] | –
– | soluble | N[C@@H](Cc1c[nH]c2ccccc12)C(=O)O [Tryptophan] | –

Compound | solubility in aqueous solutions | solubility in water | other results
NCCc1c[nH]c2ccccc12 [Tryptamine] | practically insoluble | – | –
